Test results from PMC10535219, “Discovery and Potential Utility of a Novel Non-Invasive Ocular Delivery Platform” (Pharmaceutics, 2023).
Like-named read-outs stand apart in the source and are kept apart here.

Assays:
[1] = Biodisposition of JV-DE1 and JV-MD2 delivered via NIODP (periorbital skin) in non-human primates; assay type: in vivo, cynomolgus monkeys; settings: for Cmax / concentration at 24 h / concentration at 3 h / concentration at 6 h / concentration at 0.5 h: cynomolgus, cynomolgus monkey
Procedure: All experiments were performed at Medicilon. […] A pen brush was used to dose each formulation with three to four circular motions for even distribution. The doses of the test articles were selected based on their solubility/concentration with the maximum deliverable volume on the periorbital skin of the animals. The administered dose was calculated by the weight difference of the pen brush before and after administration. Animals were restrained from eye rubbing in restraint chairs for 2 h after dosing, with access to food and drink. A blood sample was collected from one of the study animals at pre-dosing. For every time point of 0.5, 3, 6, and 24 h post-dose, one animal was euthanized and the ocular tissues (upper eyelid, cornea, retina, and vitreous humor) of both eyes were collected. Plasma samples were collected before each euthanization.
For the convenience of tissue processing and sample extraction, only upper eyelids were collected to represent the entirety of the periorbital tissue. Ocular tissues were homogenized by adding a 9-fold volume of 50% methanol/H2O per gram of tissue. For the LC-MS/MS sample preparation, a 50 μL aliquot of plasma, aqueous humor, vitreous humor, or tissue homogenate was thoroughly mixed with a 250 μL extraction solution of CHCl3/EtOH (1:1); then, a 210 μL supernatant of the samples was transferred to a 96-well plate after centrifugation. The samples were evaporated in nitrogen gas (N2) until dried. Each sample was redissolved in 200 μL MeOH, of which 2 µL was injected for the LC-MS/MS analysis.
The LC system was the same as that described in Section 2. The MS analysis was performed using a Triple Quad 5500 with an ESI ion source, and the data acquisition and control system were Analyst 1.6.3 software from Applied Biosystems/MDS Sciex.
The LC/MS conditions for JV-DE1 are described in Supplementary Table S2. The LC conditions were as follows: ACQUITY UPLC ® BEH C18 1.7 μm, 2.1 mm × 50 mm; the mobile phase Column A, 0.1% formic acid in water; and Column B, 0.1% formic acid in acetonitrile. The flow rate was 0.6 ml/min, the column temperature was 50 °C, and the injection volume was 2 µL. The MS conditions were as follows: scan type, positive MRM; ion source, turbo spray; ionization model, ESI; nebulizer gas 1, 55 psi; gas 2, 55 psi; curtain gas, 40 psi; CAD, 10; ionspray voltage, 5500 V; and temperature, 550 °C.
The LC/MS conditions for JV-MD2 (DHA) are described in Supplementary Table S3. The LC conditions were as follows: ACQUITY UPLC® BEH C18 1.7 μm, 2.1 mm × 50 mm; the mobile phase Column A, […] NH4AC in H2O; and Column B, CAN. The flow rate was 0.5 mL/min, the column temperature was 40 °C, and the injection volume was 4 µL. The MS conditions were as follows: scan type, negative MRM; ion source, turbo spray; ionization model, ESI; nebulizer gas 1, 55 psi; gas 2, 55 psi; curtain gas, 40 psi; CAD, 9; ionspray voltage, 5500 V; and temperature, 550 °C.

[2] = target: human PAF receptor; design: method as in PMID 16331286; settings: cited from earlier work
[3] = JV-DE1, monkey, NIODP OD, 159.3 μg/eye, 24 h
[4] = JV-DE1, monkey, NIODP OD, 160.6 μg/eye, 3 h
[5] = JV-DE1, monkey, NIODP OD, 162.2 μg/eye, 6 h
[6] = JV-DE1, monkey, NIODP OD, 179.1 μg/eye, 0.5 h

## CC(C)Oc1ccc(Cc2ccc(NC3=NCCN3)cc2)cc1 [JV-DE1, 4,5-dihydro-N-[4-[[4-(1-methylethoxy)phenyl]methyl]phenyl]-1H-imadazol-2-amine]
[1]; JV-DE1 0.53% w/w, monkey, NIODP periorbital skin OD, 159.3 μg/eye, 24 h, LLOQ 0.0001 µg/mL
  Drug in plasma: BLQ
[1]; [3]
  % Administered Dose, Cornea: 0.0326%
  % Administered Dose, Eyelid/periorbital skin: 0.7501%
  % Administered Dose, Retina: 0.0002%
  % Administered Dose, Vitreous humor: 0.0018%
[1]; [4]
  % Administered Dose, Cornea: 0.3430%
  % Administered Dose, Eyelid/periorbital skin: 1.4956%
  % Administered Dose, Retina: 0.0004%
  % Administered Dose, Vitreous humor: 0.0029%
[1]; [5]
  % Administered Dose, Cornea: 0.5900%
  % Administered Dose, Eyelid/periorbital skin: 0.3477%
  % Administered Dose, Retina: 0.0005%
  % Administered Dose, Vitreous humor: 0.0031%
[1]; [6]
  % Administered Dose, Cornea: 0.1921%
  % Administered Dose, Eyelid/periorbital skin: 0.6370%
  % Administered Dose, Retina: 0.0004%
  % Administered Dose, Vitreous humor: 0.0047%
[1]; JV-DE1, monkey, NIODP about 165.3 µg/eye OD, all time points, LLOQ 0.0001 µg/mL
  plasma concentrations: ≤ 0.3 ng/mL
[1]; JV-DE1, monkey, via NIODP
  maximum delivery efficiency in the retina: 0.0005%
[1]; JV-DE1, monkeys (NIODP) vs rabbits (eye drop), not head-to-head
  decrease of maximum retinal delivery efficiency, NIODP vs eye drop: about 10 fold
[1]; cornea, topical or ocular, 165.3 ug, JV-DE1, monkey, NIODP about 165.3 µg/eye OD, read-out: Cmax in cornea
  Cmax: 9300 ng/g
[1]; cornea, topical, JV-DE1, monkey, NIODP OD, 159.3 μg/eye, 24 h, read-out: Drug in OD Tissues, Cornea
  concentration at 24 h: 1620 ng/g
[1]; cornea, topical, JV-DE1, monkey, NIODP OD, 160.6 μg/eye, 3 h, read-out: Drug in OD Tissues, Cornea
  concentration at 3 h: 16700 ng/g
[1]; cornea, topical, JV-DE1, monkey, NIODP OD, 162.2 μg/eye, 6 h, read-out: Drug in OD Tissues, Cornea
  concentration at 6 h: 23900 ng/g
[1]; cornea, topical, JV-DE1, monkey, NIODP OD, 179.1 μg/eye, 0.5 h, read-out: Drug in OD Tissues, Cornea
  concentration at 0.5 h: 9300 ng/g
[1]; eyelid/periorbital skin (upper eyelid), topical, JV-DE1, monkey, NIODP OD, 159.3 μg/eye, 24 h, read-out: Drug in OD Tissues, Eyelid/periorbital skin
  concentration at 24 h: 11600 ng/g
[1]; eyelid/periorbital skin (upper eyelid), topical, JV-DE1, monkey, NIODP OD, 160.6 μg/eye, 3 h, read-out: Drug in OD Tissues, Eyelid/periorbital skin
  concentration at 3 h: 32500 ng/g
[1]; eyelid/periorbital skin (upper eyelid), topical, JV-DE1, monkey, NIODP OD, 162.2 μg/eye, 6 h, read-out: Drug in OD Tissues, Eyelid/periorbital skin
  concentration at 6 h: 7950 ng/g
[1]; eyelid/periorbital skin (upper eyelid), topical, JV-DE1, monkey, NIODP OD, 179.1 μg/eye, 0.5 h, read-out: Drug in OD Tissues, Eyelid/periorbital skin
  concentration at 0.5 h: 26500 ng/g
[1]; eyelid/periorbital skin, topical or ocular, 165.3 ug, JV-DE1, monkey, NIODP about 165.3 µg/eye OD, read-out: Cmax in eyelid/periorbital skin
  Cmax: 26500 ng/g
[1]; plasma, topical, JV-DE1 0.53% w/w, monkey, NIODP periorbital skin OD, 160.6 μg/eye, 3 h, read-out: Drug in plasma
  concentration at 3 h: 0.2 ng/mL
[1]; plasma, topical, JV-DE1 0.53% w/w, monkey, NIODP periorbital skin OD, 162.2 μg/eye, 6 h, read-out: Drug in plasma
  concentration at 6 h: 0.3 ng/mL
[1]; plasma, topical, JV-DE1 0.53% w/w, monkey, NIODP periorbital skin OD, 179.1 μg/eye, 0.5 h, read-out: Drug in plasma
  concentration at 0.5 h: 0.1 ng/mL
[1]; retina, topical or ocular, 165.3 ug, JV-DE1, monkey, NIODP about 165.3 µg/eye OD, read-out: Cmax in retina
  Cmax: 45.5 ng/g
[1]; retina, topical, 165.3 µg per eye, JV-DE1, monkey, NIODP, read-out: retinal Cmax
  Cmax: 147 nM
[1]; retina, topical, JV-DE1, monkey, NIODP OD, 159.3 μg/eye, 24 h, read-out: Drug in OD Tissues, Retina
  concentration at 24 h: 5.5 ng/g
[1]; retina, topical, JV-DE1, monkey, NIODP OD, 160.6 μg/eye, 3 h, read-out: Drug in OD Tissues, Retina
  concentration at 3 h: 27.9 ng/g
[1]; retina, topical, JV-DE1, monkey, NIODP OD, 162.2 μg/eye, 6 h, read-out: Drug in OD Tissues, Retina
  concentration at 6 h: 45.5 ng/g
[1]; retina, topical, JV-DE1, monkey, NIODP OD, 179.1 μg/eye, 0.5 h, read-out: Drug in OD Tissues, Retina
  concentration at 0.5 h: 39.6 ng/g
[1]; vitreous humor, topical or ocular, 165.3 ug, JV-DE1, monkey, NIODP about 165.3 µg/eye OD, read-out: Cmax in vitreous humor
  Cmax: 19 ng/mL
[1]; vitreous humor, topical, JV-DE1, monkey, NIODP OD, 159.3 μg/eye, 24 h, read-out: Drug in OD Tissues, Vitreous humor
  concentration at 24 h: 19 ng/mL
[1]; vitreous humor, topical, JV-DE1, monkey, NIODP OD, 160.6 μg/eye, 3 h, read-out: Drug in OD Tissues, Vitreous humor
  concentration at 3 h: 7.9 ng/mL
[1]; vitreous humor, topical, JV-DE1, monkey, NIODP OD, 162.2 μg/eye, 6 h, read-out: Drug in OD Tissues, Vitreous humor
  concentration at 6 h: 3.9 ng/mL
[1]; vitreous humor, topical, JV-DE1, monkey, NIODP OD, 179.1 μg/eye, 0.5 h, read-out: Drug in OD Tissues, Vitreous humor
  concentration at 0.5 h: 15.2 ng/mL
[2]
  pKi: 7.9
